Laboratory results reported in patent US20090209615A1, “INHIBITORS OF MATRIX METALLOPROTEINASES TO TREAT NEUROLOGICAL DISORDERS” (priority 2004, published 2009).
Entries after “also recorded” stand apart in the source; their conditions may differ. Read-outs that look alike come from different tables or passages of the source.

Columns and labels:
[1] = system: MMP gelatinolytic activity in the ischemic cortex; test: In situ zymography of ischemic brain sections treated with MMP inhibitors; assay type: biochemical, mouse; details: brain sections after MCA occlusion/reperfusion treated with inhibitor
Experimental: In situ zymography with the MMP fluorogenic substrate DQ-gelatin-FITC (Molecular Probes) was performed on fresh cryostat sections of mouse brains harvested after MCA ischemia and reperfusion (A to J). […] A, C, E, and G represent fluorogenic substrate (green), reflecting MMP activity in situ. B, D, F, H, I, and J are merged images of the fluorogenic substrate and Hoechst dye counterstaining to identify nuclei.
A, In situ zymography with the MMP fluorogenic substrate DQ-gel (green in top panels) merged with nuclear DNA staining by Hoechst dye (blue plus green in bottom panels).

MMP-9 [2] = test: MMP-9 activity in ischemic mouse brain after treatment in vivo (in situ zymography, gelatin zymography, Western blot); parameters: species or system C57BL/6J mice
laminin = test: Laminin degradation in the ischemic hemisphere after MCAO/R (Western blot, immunostaining); assay type: in vivo, mouse; details: for laminin degradation in the ischemic hemisphere (Western blot, 51 kDa fragment): SB-3CT-treated mice after transient MCAO/R
MMP-9 [3] = target: T1, MMP-9 (Mus musculus, UniProt P41245); test: MMP-9 activity in ischemic mouse brain after treatment in vivo (in situ zymography, gelatin zymography, Western blot); parameters: species or system C57BL/6J mice; details: SB-3CT-treated mice, 2-hr MCA occlusion and 24-hr reperfusion
T1 construct: from tissue; host or cells: brain of C57BL/6J mice after MCA occlusion/reperfusion

[4] = Physiological variables and regional cerebral blood flow in MCAO mice; details: for Ca^2+ / Glucose / MABP / Na^+ / PCO2 / PO2 / pH: mean ± SEM (n = 5); for regional cerebral blood flow (rCBF), laser Doppler flowmetry: MCAO and reperfusion; for pH: arterial blood
[5] = system: C57BL/6J mice, MCA occlusion/reperfusion; test: Transient focal cerebral ischemia (MCA occlusion/reperfusion): infarct volume and neurological deficits; assay type: in vivo
MMP-9 [6] = target: T2, MMP-9 (Homo sapiens, UniProt P14780); test: Ex vivo degradation of neuronal laminin by exogenous MMP-9 in mouse-brain sections; assay type: biochemical
Target sequence in this assay (P14780 107-707 limits assumed, species assumed): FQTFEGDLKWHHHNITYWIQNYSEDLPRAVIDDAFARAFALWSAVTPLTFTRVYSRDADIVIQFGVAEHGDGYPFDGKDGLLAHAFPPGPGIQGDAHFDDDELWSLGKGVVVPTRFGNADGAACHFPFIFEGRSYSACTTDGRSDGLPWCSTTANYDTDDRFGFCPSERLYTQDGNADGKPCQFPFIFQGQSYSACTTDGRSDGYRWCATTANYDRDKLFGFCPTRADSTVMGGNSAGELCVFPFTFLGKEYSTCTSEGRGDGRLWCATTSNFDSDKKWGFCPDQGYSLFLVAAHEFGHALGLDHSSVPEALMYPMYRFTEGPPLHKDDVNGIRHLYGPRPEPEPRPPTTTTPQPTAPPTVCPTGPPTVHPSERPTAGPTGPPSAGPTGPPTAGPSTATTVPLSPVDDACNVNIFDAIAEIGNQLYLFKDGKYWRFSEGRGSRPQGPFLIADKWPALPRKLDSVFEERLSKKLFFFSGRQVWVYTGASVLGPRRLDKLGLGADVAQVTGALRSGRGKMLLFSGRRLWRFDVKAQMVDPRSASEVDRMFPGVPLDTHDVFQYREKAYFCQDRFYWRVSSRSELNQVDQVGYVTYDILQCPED
Experimental: Purified mouse Engelbreth-Holm-Swarm laminin (ms EHS Ln) served as a molecular marker for laminin immunoblotting. The membrane was reblotted with anti-actin antibody to ensure equal protein loading in each lane.
Ex vivo laminin degradation and Western blots. Brain lysates (50 mg of total protein in TBS with 0.05% Brij 35) were incubated overnight at 37° C. with activated MMP-9, latent preform of MMP-9 (proMMP-9), or the catalytic domain of membrane type 1 (MT1)-MMP. […] Laminin and MMP-9 were analyzed by immunoblotting using rabbit pan-laminin (pan-Ln) and MMP-9 antibodies (from Sigma (St. Louis, Mo.) and Calbiochem (La Jolla, Calif.), respectively), followed by peroxidase-conjugated anti-rabbit IgG antibody. Peroxidase was visualized by enhanced chemiluminescence (Amersham Biosciences).

cerebrocortical neurons = test: Neuronal apoptosis induced by SNOC-activated MMP-9 in cerebrocortical cultures; assay type: cell-based; details: R-proMMP-9 pre-activated by SNOC, 18 hours
[7] = Stability of S-nitrosothiols (NAT conversion from DAN)
R-proMMP-9 = R-proMMP-9 (Homo sapiens, UniProt P14780); test: Activation of R-proMMP-9 in vitro (gelatin zymography, fluorogenic peptide cleavage)
MMP-2 = target: T3, MMP-2 (Homo sapiens, UniProt P08253); details: high-affinity site for TIMPs, Olson et al. 1997; cited from earlier work
T3 sequence (P08253 110-660): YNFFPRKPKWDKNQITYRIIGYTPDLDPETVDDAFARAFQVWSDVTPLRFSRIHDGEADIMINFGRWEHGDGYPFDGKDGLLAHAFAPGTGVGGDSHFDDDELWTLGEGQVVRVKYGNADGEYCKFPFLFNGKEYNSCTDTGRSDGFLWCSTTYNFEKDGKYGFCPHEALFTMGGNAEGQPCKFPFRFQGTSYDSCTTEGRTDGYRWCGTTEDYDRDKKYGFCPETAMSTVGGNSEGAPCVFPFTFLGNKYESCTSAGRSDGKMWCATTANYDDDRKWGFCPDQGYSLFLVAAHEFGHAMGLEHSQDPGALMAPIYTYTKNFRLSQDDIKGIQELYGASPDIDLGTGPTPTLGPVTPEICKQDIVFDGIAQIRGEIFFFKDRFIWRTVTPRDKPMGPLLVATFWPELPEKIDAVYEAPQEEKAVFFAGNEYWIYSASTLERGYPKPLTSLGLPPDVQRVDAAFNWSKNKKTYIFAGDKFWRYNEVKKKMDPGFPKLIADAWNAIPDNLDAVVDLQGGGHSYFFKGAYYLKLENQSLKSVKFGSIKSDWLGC

MMP-9 [8] = target: T2, MMP-9; details: high-affinity site for TIMPs, Olson et al. 1997; cited from earlier work
Target sequence in this assay (P14780 107-707 limits assumed): as the sequence (P14780 107-707 limits assumed, species assumed) above

Chain of R-proMMP-9 (P14780 20-444 limits assumed): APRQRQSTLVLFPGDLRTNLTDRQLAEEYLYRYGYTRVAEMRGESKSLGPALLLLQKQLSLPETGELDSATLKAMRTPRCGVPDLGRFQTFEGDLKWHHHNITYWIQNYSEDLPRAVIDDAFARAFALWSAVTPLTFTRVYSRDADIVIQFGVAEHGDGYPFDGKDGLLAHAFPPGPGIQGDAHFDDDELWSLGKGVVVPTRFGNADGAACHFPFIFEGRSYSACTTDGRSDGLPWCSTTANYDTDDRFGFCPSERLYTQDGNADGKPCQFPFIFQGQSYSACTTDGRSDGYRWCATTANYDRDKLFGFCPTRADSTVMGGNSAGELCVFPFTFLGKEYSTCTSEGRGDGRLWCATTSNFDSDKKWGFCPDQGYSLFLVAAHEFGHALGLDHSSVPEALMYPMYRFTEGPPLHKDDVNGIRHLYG

c1cnc2c(c1)ccc1cccnc12 [1,10-phenanthroline]
MMP gelatinolytic activity in the ischemic cortex (in situ zymography) [1]: reduced; also recorded: abrogated | MMP gelatinolytic activity in the ischemic cortex (in situ zymography) ([1]; listed as 1/10-phenanthroline): can prevent activation of MMP-9

O=[N+]([O-])c1cccc2c(Br)n[nH]c12 [3-bromo-7-nitroindazole, reference compound]
MMP activity in the ischemic cortex (in situ zymography) (MMP-9 [2]; 30 mg/kg body weight i.p. prior to ischemia, wild-type mice): abrogated | laminin degradation in the ischemic cortex (laminin immunoreactivity) (laminin; wild-type mice treated with nNOS inhibitor, after MCA occlusion/reperfusion): attenuated; also recorded: blockage of laminin degradation

O=S(=O)(CC1CS1)c1ccc(Oc2ccccc2)cc1 (stereo not shown) [Compound 1, (4-Phenoxyphenylsulfonyl)methylthiirane]
MMP gelatinolytic activity in the ischemic region (in situ zymography, deconvolution microscopy) (MMP-9 [2]; SB-3CT-treated mice vs vehicle-treated control, after MCAO/reperfusion): significantly reduced | active MMP-9 in ischemic brain (gelatin zymography, Western blot) (MMP-9 [3]; listed as SB3CT): attenuated the increase; also recorded: can prevent activation of MMP-9 | proMMP-9 in ischemic brain (gelatin zymography, Western blot) (MMP-9 [3]; listed as SB3CT): attenuated the increase | active MMP-9 in ischemic brain (gelatin zymography, Western blot) (MMP-9 [3]; listed as SB-3CT): attenuated the increase; also recorded: significantly decreased | proMMP-9 in ischemic brain (gelatin zymography, Western blot) (MMP-9 [3]; listed as SB-3CT): attenuated the increase; also recorded: also decreased | Ca^2+ ([4]; After MCAO): 1.100 ± 0.074 mmol/L | Glucose ([4]; After MCAO): 154.3 ± 12.6 mg/dL | MABP ([4]; After MCAO): 76.12 ± 2.89 mmHg | Na^+ ([4]; After MCAO): 157.7 ± 2.0 mmol/L | PCO2 ([4]; After MCAO): 43.90 ± 5.28 mmHg | PO2 ([4]; After MCAO): 245.4 ± 24.0 mmHg | Ca^2+ ([4]; Before MCAO): 1.150 ± 0.021 mmol/L | Glucose ([4]; Before MCAO): 160.7 ± 13.2 mg/dL | MABP ([4]; Before MCAO): 78.68 ± 3.17 mmHg | Na^+ ([4]; Before MCAO): 155.7 ± 1.8 mmol/L | PCO2 ([4]; Before MCAO): 40.70 ± 7.828 mmHg | PO2 ([4]; Before MCAO): 230.8 ± 31.7 mmHg | Ca^2+ ([4]; During MCAO): 1.117 ± 0.081 mmol/L | Glucose ([4]; During MCAO): 162.70 ± 13.3 mg/dL | MABP ([4]; During MCAO): 79.49 ± 3.48 mmHg | Na^+ ([4]; During MCAO): 157.20 ± 0.5 mmol/L | PCO2 ([4]; During MCAO): 44.95 ± 14.55 mmHg | PO2 ([4]; During MCAO): 214.5 ± 10.3 mmHg | regional cerebral blood flow (rCBF), laser Doppler flowmetry ([4]; vs vehicle-treated controls, listed as SB3CT): no significant differences; also recorded: unaffected | regional cerebral blood flow (rCBF), laser Doppler flowmetry ([4]; vs vehicle-treated controls, listed as SB-3CT): no significant differences | pH ([4]; After MCAO): 7.170 ± 0.027 | pH ([4]; Before MCAO): 7.313 ± 0.060 | pH ([4]; During MCAO): 7.106 ± 0.025 | physiological parameters including arterial blood gases and glucose ([4]; vs vehicle-treated controls): did not affect | laminin degradation in the ischemic hemisphere (Western blot, 51 kDa fragment) (laminin; listed as SB3CT): attenuated laminin degradation products | laminin degradation in the ischemic hemisphere (Western blot, 51 kDa fragment) (laminin; listed as SB-3CT): decreased laminin degradation; also recorded: reduced | infarct volume (TTC staining) ([5]; 25 mg/kg i.p. twice, 30 minutes before MCAO and 2 hours after MCAO, 2-hour MCAO, 24-hour reperfusion, vs vehicle, P<0.004 (FIG. 9), listed as SB3CT): decreases infarct volume; also recorded: protects the ischemic brain | infarct volume (TTC staining) ([5]; 25 mg/kg i.p., 24 h after reperfusion, vs vehicle-treated controls, p<0.001 (FIG. 14C)): decreased infarct volume | infarct volume ([5]; 25 mg/kg i.p., administration 6 h after ischemia, compared with 55% in vehicle-treated animals): 40% | infarct volume ([5]; 25 mg/kg i.p., first injection 2 h postischemic, second 3 h later, 24 h after reperfusion): 30 % of control | infarct volume ([5]; 25 mg/kg i.p., preischemic injection (30 min before ischemia, second immediately before reperfusion), 24 h after reperfusion): 30 % of control | neurological behavioral score ([5]; 24 h after MCA occlusion/reperfusion, vs vehicle-treated controls, p<0.02 (FIG. 14D)): significantly improved neurological function | neurological behavioral outcomes (deficit score 0-4) ([5]; 24 hours after focal MCAO and reperfusion, vs vehicle, P<0.01 (FIG. 9C), listed as SB3CT): significantly reduced neurological deficit outcomes; also recorded: improved | behavioral scores (five-point scale) ([5]; treated 2 h after ischemia, 24 h after reperfusion): significant improvement in behavioral scores | behavioral scores (five-point scale) ([5]; treated before ischemia, 24 h after reperfusion): significant improvement in behavioral scores

O=S(=O)(CCC1CO1)c1ccc(Oc2ccccc2)cc1 (stereo not shown) [Compound 5, 2-(4-Phenoxyphenylsulfonyl)ethyloxirane]
melting point: 75 to 77 °C

CNC(=O)[C@H](Cc1c[nH]c2ccccc12)NC(=O)[C@@H](CC(=O)NO)CC(C)C [GM6001]
degradation of neuronal laminin by activated MMP-9 (MMP-9 [6]): significantly reduced laminin degradation; also recorded: inhibited MMP-9 proteolysis of neuronal laminin | neuronal apoptosis (cerebrocortical neurons): abrogated the effect; also recorded: blocked the neuronal cell death | MMP gelatinolytic activity in the ischemic cortex (in situ zymography) [1]: reduced; also recorded: abrogated; also recorded: can prevent activation of MMP-9

N[C@@H](CSN=O)C(=O)O [SNOC, S-nitrosocysteine]
half-life at 200 μM [7]: < 10 min | decayed ([7]; within 15 min of incubation): over 95% | conversion of R-proMMP-9 into the activated form (gelatin zymography) (R-proMMP-9; R-proMMP-9 100 ng/ml, 200 μM agent, 18 hours, room temperature): partial conversion | initial velocity of R-proMMP-9 activation (R-proMMP-9; cleavage of synthetic fluorogenic peptide substrate): 0.88 µM/h

O=NO [acidified sodium nitrite, sodium nitrite]
conversion of R-proMMP-9 into the activated form (gelatin zymography) (R-proMMP-9): partial conversion

TIMP-1: endogenous cellular protein inhibitor of MMPs (tissue inhibitor of metalloproteinases)
Ki (MMP-2): 0.029 ± 0.005 µM | Ki (MMP-9 [8]): 0.024 ± 0.004 µM
